The structures appear in SMILES notation.

For this data set the following is noted: from C=C[C@@H]1OC(c2ccc(OC)cc2)O[C@]1(C)CC[C@H](CC(=O)O[C@H](/C(C)=C/I)[C@@H](C)C=C)O[Si](C)(C)C(C)(C)C; rcm bond; Hoveyda-Grubbs 2nd generation; toluene; 6.52 mM; 110.0 °C; 5.0 h.

For `COc1ccc(C2O[C@H]3C=C[C@H](C)[C@@H](/C(C)=C/I)OC(=O)C[C@H](O[Si](C)(C)C(C)(C)C)CC[C@@]3(C)O2)cc1` (stereo partly shown), the ring closure, yield of all isomers stood at 50%.

(Values after EP4818312A2.)
